Measured values reported in patent publication US12391671B2, “Allosteric EGFR inhibitors and methods of use thereof” (Dana-Farber Cancer Institute, Inc., priority 2019, dated 2025).
Structures can show the parent of a compound that is named as a salt. Where two headings read alike, the source gives them in different places.

Legend:
[1] = system: EGFR mutant L858R/T790M Ba/F3 cells; assay: Ba/F3 cell proliferation model (Cell Titer Glo), EGFR L858R/T790M; type: cell-based, murine; conditions: 72 hours
Summary of the method: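 Retrovirally transduced Ba/F3 cells exposed 72 h to compound alone or with 1 μg/mL cetuximab, triplicate points, repeated at least three times. Viability by Cell Titer Glo luminescence (ATP); curves fitted by non-linear sigmoidal dose-response regression.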

[2] = target: EGFR L858R/T790M (Homo sapiens (Human), UniProt P00533, L858R/T790M); assay: HTRF-based EGFR biochemical assay (L858R/T790M); conditions: 100 μM ATP, enzyme 0.02 nM
EGFR L858R/T790M, sequence (P00533 25-1210 T790M/L858R): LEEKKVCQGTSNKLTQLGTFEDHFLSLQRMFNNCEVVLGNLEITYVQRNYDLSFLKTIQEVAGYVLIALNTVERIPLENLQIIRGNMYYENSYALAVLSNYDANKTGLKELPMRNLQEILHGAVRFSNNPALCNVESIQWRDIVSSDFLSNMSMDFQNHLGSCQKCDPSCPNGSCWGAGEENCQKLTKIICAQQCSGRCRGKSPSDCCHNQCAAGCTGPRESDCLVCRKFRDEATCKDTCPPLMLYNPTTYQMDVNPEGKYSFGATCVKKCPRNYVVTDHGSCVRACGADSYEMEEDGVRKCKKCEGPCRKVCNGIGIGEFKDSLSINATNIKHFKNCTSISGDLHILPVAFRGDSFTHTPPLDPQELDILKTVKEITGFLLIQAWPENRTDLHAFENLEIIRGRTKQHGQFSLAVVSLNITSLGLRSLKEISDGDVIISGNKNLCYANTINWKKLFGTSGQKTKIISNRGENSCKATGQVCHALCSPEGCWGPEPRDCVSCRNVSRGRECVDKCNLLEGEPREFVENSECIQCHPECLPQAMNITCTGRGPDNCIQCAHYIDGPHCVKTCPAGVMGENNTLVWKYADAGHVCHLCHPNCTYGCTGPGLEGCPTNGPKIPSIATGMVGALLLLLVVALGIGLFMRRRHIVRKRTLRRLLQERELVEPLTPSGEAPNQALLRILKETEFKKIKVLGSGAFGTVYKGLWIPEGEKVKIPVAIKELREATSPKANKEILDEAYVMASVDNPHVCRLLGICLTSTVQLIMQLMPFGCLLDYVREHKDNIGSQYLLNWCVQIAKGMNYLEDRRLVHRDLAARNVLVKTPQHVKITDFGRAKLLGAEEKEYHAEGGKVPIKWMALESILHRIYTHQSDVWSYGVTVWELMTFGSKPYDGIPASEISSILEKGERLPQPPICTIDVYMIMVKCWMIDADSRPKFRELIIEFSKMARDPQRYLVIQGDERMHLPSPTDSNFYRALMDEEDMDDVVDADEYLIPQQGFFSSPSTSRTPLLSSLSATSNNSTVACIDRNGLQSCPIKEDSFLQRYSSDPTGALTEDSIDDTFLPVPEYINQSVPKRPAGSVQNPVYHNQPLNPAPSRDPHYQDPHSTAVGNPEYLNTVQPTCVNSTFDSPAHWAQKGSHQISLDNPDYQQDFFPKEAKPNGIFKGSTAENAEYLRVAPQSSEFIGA
Summary of the method: (§1)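 Mutant EGFR (L858R 0.1 nM, L858R/T790M 0.02 nM) preincubated 30 min with compounds at room temperature in HEPES pH 7.0 buffer with Mg2+/Mn2+, then reacted 20 min with 1 μM biotinylated tyrosine kinase peptide and 100 μM ATP. Phosphorylation read by HTRF (Eu-cryptate anti-phosphotyrosine/streptavidin-XL665, 665/620 nm) after EDTA quench.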

[3] = target: EGFR L858R (Homo sapiens (Human), UniProt P00533, L858R); assay: HTRF-based EGFR biochemical assay (L858R); conditions: 100 μM ATP, enzyme 0.1 nM
EGFR L858R, sequence (P00533 25-1210 L858R): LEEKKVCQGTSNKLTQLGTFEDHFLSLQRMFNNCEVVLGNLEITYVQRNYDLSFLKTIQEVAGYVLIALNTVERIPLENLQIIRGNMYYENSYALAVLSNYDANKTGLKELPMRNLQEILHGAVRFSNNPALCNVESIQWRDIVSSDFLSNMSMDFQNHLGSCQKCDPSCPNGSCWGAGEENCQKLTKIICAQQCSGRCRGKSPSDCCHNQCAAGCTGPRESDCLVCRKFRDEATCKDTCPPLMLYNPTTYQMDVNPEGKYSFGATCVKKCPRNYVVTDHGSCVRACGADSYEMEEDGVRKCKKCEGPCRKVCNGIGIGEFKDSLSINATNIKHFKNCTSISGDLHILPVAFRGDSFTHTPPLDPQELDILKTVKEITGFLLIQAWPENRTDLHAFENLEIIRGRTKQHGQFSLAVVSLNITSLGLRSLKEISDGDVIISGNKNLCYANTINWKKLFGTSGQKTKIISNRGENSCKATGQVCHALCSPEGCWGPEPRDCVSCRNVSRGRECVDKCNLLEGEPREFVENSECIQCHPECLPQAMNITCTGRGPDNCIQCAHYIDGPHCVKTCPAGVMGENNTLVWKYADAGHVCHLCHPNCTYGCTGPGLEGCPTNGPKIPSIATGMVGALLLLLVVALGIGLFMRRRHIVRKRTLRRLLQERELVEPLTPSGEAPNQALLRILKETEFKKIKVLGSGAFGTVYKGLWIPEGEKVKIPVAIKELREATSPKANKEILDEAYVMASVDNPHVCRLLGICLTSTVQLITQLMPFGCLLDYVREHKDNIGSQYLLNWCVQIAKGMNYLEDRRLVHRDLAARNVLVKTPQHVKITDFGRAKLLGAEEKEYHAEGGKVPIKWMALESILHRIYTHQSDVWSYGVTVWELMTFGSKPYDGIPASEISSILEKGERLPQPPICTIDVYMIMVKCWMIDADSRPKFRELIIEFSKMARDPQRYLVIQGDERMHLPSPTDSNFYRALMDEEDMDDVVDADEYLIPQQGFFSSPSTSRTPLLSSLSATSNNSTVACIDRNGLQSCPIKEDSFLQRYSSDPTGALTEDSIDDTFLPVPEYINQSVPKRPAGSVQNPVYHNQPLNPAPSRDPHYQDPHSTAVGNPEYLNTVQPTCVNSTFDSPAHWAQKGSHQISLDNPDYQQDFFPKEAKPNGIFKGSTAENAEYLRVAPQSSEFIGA
Summary of the method: as §1

[4] = system: EGFR mutant L858R Ba/F3 cells; assay: Ba/F3 cell proliferation model (Cell Titer Glo), EGFR L858R; type: cell-based, murine; conditions: 72 hours
Excerpt: Example 26: Ba/F3 Cell Proliferation Models
The EGFR mutant L858R and L858R/T790M Ba/F3 cells have been previously described (Zhou, W., et al. Nature 462, 2009, 1070-1074). All cell lines were maintained in RPM 1640 (Cellgro; Mediatech Inc., Herndon. CA) supplemented with 10% FBS, 100 units/mL penicillin, 100 units/mL streptomycin. The EGFR I941R mutation was introduced via site directed mutagenesis using the Quick Change Site-Directed Mutagenesis kit (Stratagene; La Jolla, CA) according to the manufacturer's instructions. All constructs were confirmed by DNA sequencing. The constructs were shuttled into the retroviral vector JP1540 using the Cre-recombination system (Agilent Technologies, Santa Clara, CA). Ba/F3 cells were then infected with retrovirus per standard protocols, as described previously (Zhou, et al, Nature 2009). Stable clones were obtained by selection in puromycin (2 μg/ml).
Growth and inhibition of growth was assessed by the Cell Titer Glo® assay (Promega, Madison, WI) and was performed according to the manufacturer's instructions. The Cell Titer Glo® assay is a luminescence-based method used to determine the number of viable cells based on quantitation of the ATP present, which is directly proportional to the amount of metabolically active cells present. Ba/F3 cells of different EGFR genotypes were exposed to compounds as a single agent or in combination with 1 μg/mL cetuximab for 72 hours and the number of cells used per experiment was determined empirically as has been previously established (Zhou, et al., Nature 2009). All experimental points were set up in triplicates in 384-well plates and all experiments were repeated at least three times. […] The curves were fitted using a non-linear regression model with a sigmoidal dose response.

[5] = Mus musculus, BaF3, single agent, read-out: Cell IC50 BaF3 EGFR L858R/T790M
[6] = Mus musculus, BaF3, single agent, read-out: Cell IC50 BaF3 EGFR L858R
[7] = in combination with 1 μg/mL cetuximab, read-out: Cell IC50 BaF3 EGFR L858R/T790M (+cetux.)
[8] = in combination with 1 μg/mL cetuximab, read-out: Cell IC50 BaF3 EGFR L858R (+cetux.)

| Structure (SMILES) | IC50 [1, 5] [µM] | IC50 [2] [µM] | IC50 [3] [µM] | IC50 [4, 6] [µM] | IC50 [1, 7] [µM] | IC50 [4, 8] [µM] |
| --- | --- | --- | --- | --- | --- | --- |
| O=C1c2cc(-c3ccc(OC4CNC4)cc3)ccc2CN1C(c1nc2ccccc2[nH]1)c1cc(F)ccc1O (stereo not shown) [Compound 091, 6-[4-(azetidin-3-yloxy)phenyl]-2-[1H-benzimidazol-2-yl-(5-fluoro-2-hydroxy-phenyl)methyl]isoindolin-1-one; dihydrochloride] | 1.05 | 0.006 | 0.012 | 1.78 | 0.12 |  |
| CN1CCC(Oc2ccc(-c3ccc4c(c3)C(=O)N(C(c3nc5ccccc5[nH]3)c3cc(F)ccc3O)C4)cc2)CC1 (stereo not shown) [Compound 090, 2-[1H-benzimidazol-2-yl-(5-fluoro-2-hydroxy-phenyl)methyl]-6-[4-[(1-methyl-4-piperidyl)oxy]phenyl]isoindolin-1-one] | 0.86 | 0.008 | 0.011 | 1.43 | 0.02 |  |
| CCc1c(-c2ccc(C3CCN(C)CC3)cc2)ccc2ncn(C(c3nc4ccccc4[nH]3)c3cc(F)ccc3O)c(=O)c12 (stereo not shown) [Compound 074, 3-[1H-benzimidazol-2-yl-(5-fluoro-2-hydroxy-phenyl)methyl]-5-ethyl-6-[4-(1-methyl-4-piperidyl)phenyl]-quinazolin-4-one; dihydrochloride] | 0.12 | 0.001 | 0.002 | 0.11 | 0.02 |  |
| Cc1c(-c2ccc(C3CCN(C)CC3)cc2)ccc2c1C(=O)N(C(c1nc3ccccc3[nH]1)c1cc(F)ccc1O)C2 (stereo not shown) [Compound 082, 2-[1H-benzimidazol-2-yl-(5-fluoro-2-hydroxy-phenyl)methyl]-7-methyl-6-[4-(1-methyl-4-piperidyl)phenyl]isoindolin-1-one; dihydrochloride] | 0.22 | 0.0006 | 0.003 | 0.67 | 0.02 |  |
| Cc1c[nH]c(C(c2cc(F)ccc2O)N2Cc3ccc(-c4ccc(C5CCN(C)CC5)cc4)cc3C2=O)n1 (stereo not shown) [Compound 085, 2-[(5-Fluoro-2-hydroxy-phenyl)-(4-methyl-1H-imidazol-2-yl)methyl]-6-[4-(1-methyl-4-piperidyl)phenyl]isoindolin-1-one] | 1.29 | 0.028 | 0.013 | 0.78 | 0.05 |  |
| CN1CCC(c2ccc(-c3ccc4c(c3F)C(=O)N(C(c3nc5ccccc5[nH]3)c3cc(F)ccc3O)C4)cc2)CC1 (stereo not shown) [Compound 032, 2-[1H-benzimidazol-2-yl-(5-fluoro-2-hydroxy-phenyl)methyl]-7-fluoro-6-[4-(1-methyl-4-piperidyl)phenyl]isoindolin-1-one;hydrochloride] | 0.21 |  |  | 0.96 | 0.007 | 0.05 |
| CN1CCC2(c3ccc(-c4ccc5c(c4)C(=O)N(C(c4nc6ccccc6[nH]4)c4cc(F)ccc4O)C5)cc3)CC2C1 (stereo not shown) [Compound 079, 2-[1H-benzimidazol-2-yl-(5-fluoro-2-hydroxy-phenyl)methyl]-6-[4-(3-methyl-3-azabicyclo[4.1.0]heptan-6-yl)phenyl]isoindolin-1-one; dihydrochloride] | 0.19 | 0.0008 | 0.003 | 0.83 | 0.007 |  |

More lines, now with the values ahead:

| IC50 [1, 5] [µM] | IC50 [2] [µM] | IC50 [3] [µM] | IC50 [4, 6] [µM] | IC50 [1, 7] [µM] | IC50 [4, 8] [µM] | Structure (SMILES) |
| --- | --- | --- | --- | --- | --- | --- |
| 1.31 | 0.006 | 0.016 | 4.08 |  |  | CN1CCC(c2ccc(-c3cc4nn(C(c5nc6ccccc6[nH]5)c5cc(F)ccc5O)cc4cc3F)cc2)CC1 (stereo not shown) [Compound 118, 2-((1H-Benzo[d]imidazol-2-yl)(5-fluoro-6-(4-(1-methylpiperidin-4-yl)phenyl)-2H-indazol-2-yl)methyl)-4-fluorophenol] |
| 0.09 | 0.0007 | 0.001 | 0.1 | 0.02 |  | CN1CCC(c2ccc(-c3ccc4ncn(C(c5nc6ccccc6[nH]5)c5cc(F)ccc5O)c(=O)c4c3Cl)cc2)CC1 (stereo not shown) [Compound 075, 3-[1H-benzimidazol-2-yl-(5-fluoro-2-hydroxy-phenyl)methyl]-5-chloro-6-[4-(1-methyl-4-piperidy)phenyl]-quinazolin-4-one; dihydrochloride] |
| 0.09 | 0.0004 | 0.001 | 0.24 | 0.01 | 0.03 | CN1CCC(c2ccc(-c3ccc4ncn(C(c5nc6ccccc6[nH]5)c5cc(F)ccc5O)c(=O)c4c3F)cc2)CC1 (stereo not shown) [Compound 004, 3-((1H-Benzo[d]imidazol-2-yl)(5-fluoro-2-hydroxyphenyl)methyl)-5-fluoro-6-(4-(1-methylpiperidin-4-yl)phenyl)quinazolin-4(3H)-one 2,2,2-trifluoroacetate] |
| 0.58 | 0.014 | 0.021 | 0.93 | 0.02 |  | CN1CCC(c2ccc(-c3cc4ccn(C(c5nc6ccccc6[nH]5)c5cc(F)ccc5O)c(=O)c4cc3F)cc2)CC1 (stereo not shown) [Compound 073, 2-[1H-benzimidazol-2-yl-(5-fluoro-2-hydroxy-phenyl)methyl]-7-fluoro-6-[4-(1-methyl-4-piperidy)phenyl]-isoquinolin-1-one] |
| 0.53 | 0.004 | 0.014 | 2 |  |  | CN1CCC(c2ccc(-c3ccc4cn(C(c5nc6ccccc6[nH]5)c5cc(F)ccc5O)nc4c3)cc2)CC1 (stereo not shown) [Compound 100, 2-((1H-Benzo[d]imidazol-2-yl)(6-(4-(1-methylpiperidin-4-yl)phenyl)-2H-indazol-2-yl)methyl)-4-fluorophenol; trifluoroacetate] |
| 0.2 | 0.0006 | 0.001 | 0.63 |  |  | CN1CCC(c2ccc(-c3ccc4c(c3)C(=S)N([C@@H](c3nc5ccccc5[nH]3)c3cc(F)ccc3O)C4)cc2)CC1 (single isomer, unassigned) [Compound 083] |
| 0.52 | 0.005 | 0.009 | 0.36 | 0.01 |  | CN1CCC(c2ccc(-c3ccc4c(=O)n(C(c5nc6ccccc6[nH]5)c5cc(F)ccc5O)ccc4c3)cc2)CC1 (racemic) [Compound 069, Rac-2-(1H-1,3-benzodiazol-2-yl)(5-fluoro-2-hydroxyphenyl)methyl]-6-[4-(1-methylpiperidin-4-yl)phenyl]-1,2-dihydroisoquinolin-1-one] |
| 0.94 | 0.0004 | 0.003 | 3.89 | 0.02 | 0.18 | CN1CCC(c2ccc(-c3ccc4ncn(C(c5nc6ccccc6[nH]5)c5cc(F)ccc5O)c(=O)c4n3)cc2)CC1 (stereo not shown) [Compound 009, 3-((1H-Benzo[d]imidazol-2-yl)(5-fluoro-2-hydroxyphenyl)methyl)-6-(4-(1-methylpiperidin-4-yl)phenyl)pyrido[3,2-d]pyrimidin-4(3H)-one 2,2,2-trifluoroacetate] |
| 0.42 | 0.0007 | 0.004 | 1.43 | 0.005 | 0.06 | CN1CCC(c2ccc(-c3ccc4cn(C(c5nc6ccccc6[nH]5)c5cc(F)ccc5O)nc4c3F)cc2)CC1 (stereo not shown) [Compound 034, 2-[1H-benzimidazol-2-yl-[7-fluoro-6-[4-(1-methyl-4-piperidyl)phenyl]indazol-2-yl]methyl]-4-fluoro-phenol;hydrochloride] |
